Experiments:
mouse zygotes = experiment: DNA damage foci immunostaining in mouse zygotes/embryos; assay type: cell-based; conditions: mouse zygotes, mirin combined with aphidicolin
Method: (§1) Embryos, mouse and human, were cultured in Global Total (Life-Global) for the duration of the experiments and with added compounds as outlined below. Incubation in RNA polymerase inhibitors triptolide (1 mM) or alpha amanitin (20 mg/ml) was performed from the 2PN stage (day1) to day3 of human development. Incubation in aphidicolin was performed at 2 mM. […] Mirin was used at a concentration of 50 mM. Olaparib was used to inhibit PARP at a concentration of 10 mM. All experiments were conducted during incubation at 37° C. with 5% CO2 and 19-20% O2. Chemical stock solutions were prepared in DMSO at concentrations at least 1000× higher than the final concentration.
(§2) Mouse oocytes were activated at 1-6 hours post retrieval using 2 mM ionomycin (Sigma Aldrich) in Global Total medium for 5 minutes at 37° C. followed by culture in 10 mM puromycin and 5 mg/ml cytochalasin B for 3 hours, then cytochalasinB only for 2 hours and 10 minutes to prevent second polar body extrusion.
(§3) Following the experimental exposures, mouse and human embryos were fixed in 2% paraformaldehyde (PFA) and 0.25% Triton X-100 in PBS for 10 minutes at room temperature, serially washed in phosphate-buffered solution (PBS) at room temperature, then stored in PBS at 4° C. until staining and imaging. Embryos were placed in 10-20 ml droplets of primary antibody solution within plastic tissue culture dishes covered with mineral oil for 1 hour at room temperature, serially washed (×2) in PBS containing 0.01% Triton X-100 to prevent embryos sticking to oil, then transferred to 10-20 ml secondary antibody solution and Hoechst (dilution 1:500) for 30 minutes. Embryos were then serially washed (×2) and placed in 5 ml droplets of PBS with 0.5% serum albumin in uncoated glass bottom dishes (Mattek) covered with embryo culture oil for imaging. The following primary antibodies were used across experiments as described above: Oct-4, γH2AX, RPA32, RPA32 S4/S8, RPA32 S33, 53BP1, RAD51, Centromere, and phospho-CHK1. Phospho-specific antibodies were quality controlled through ATR dependence of foci formation in mouse zygotes, and for γH2AX also in human zygotes. […] The appropriate secondary antibodies conjugated with Alexa Fluor 488, Alexa Fluor 555, CF 568, or Alexa Fluor 647 were diluted at 1:500-1:1000. Ethynyl deoxyuridine (EdU) labeling of zygotes and embryos was performed using the labeling kit (Thermo Fisher Scientific) as described by the manufacturer. 10 mM EdU was added to culture medium for 1 h at the indicated time points, and cells were harvested and fixed thereafter. 5-ethynyl uridine (EU) labeling was performed by incubating day3 cleavage stage embryos for 4 hours in Global total containing 0.2 mM EU.
(§4) Embryos were imaged with confocal microscopy using a Zeiss LSM (LSM 710) at a magnification of 63× and the Zeiss Zen software. Images were obtained using 488-, 543- and 633-nm lasers and bright-field microscopy. The number of confocal sections was adjusted to capture the entire nucleus or the entire embryo according to the experimental design as described above. Cell numbers and staining foci numbers were counted manually. Nuclei were identified by the presence of Hoechst33342. Foci were identified if at least 3× greater intensity than nuclear average, spherical in appearance, and overlapping with Hoechst33342 staining. Inner cell masses were identified by the presence of Oct4 within a blastocyst embryo. Active DNA replication was identified by the presence of EdU. DNA damage was identified by the detection of γH2AX and RPA foci within the nucleus. Mechanisms of DNA repair were identified through the detection of RPA S4/S8, RPA S33, Rad51 and 53BP1 foci within the nucleus.

human zygotes = experiment: DNA damage foci immunostaining in human zygotes/parthenotes; assay type: cell-based
Method: as §1
Artificial activation of human MII oocytes was performed using two pulses of 2.7 kV/cm at 50 ms using ECFG21 (Nepagene) in fusion buffer consisting of 0.25 M d-sorbitol buffer containing 0.1 mM calcium acetate, 0.5 mM magnesium acetate, 0.5 mM HEPES, and 1 mg ml^−1 fatty-acid-free BSA as previously described (Tachibana et al., 2013). Thereafter, oocytes were incubated for 3.5-4 h in 10 mg/ml puromycin, followed by a wash step and following culture in Global total.
as §3, with “phospho-CHK1.” for “phospho-CHK1. Phospho-specific antibodies were quality controlled through ATR dependence of foci formation in mouse zygotes, and for γH2AX also in human zygotes.”
as §4

human embryos [1] = experiment: nucleation and development of human embryos; assay type: cell-based; conditions: 2PN zygotes incubated days 1 to 3, versus untreated cleavage-stage embryos
Description: Cryopreserved human cleavage-stage and blastocyst embryos and unfertilized oocytes were anonymously donated from individuals and couples who provided consent for use in research. Embryos were of good quality and had been cryopreserved for potential clinical use but were then no longer needed and donated for research. The cause of treatment is not disclosed. Range of maternal age of donated embryos is between 27-43. Embryos of both sexes were used, as provided by the unbiased fertilization of oocytes with sperm carrying either a Y or X chromosome. Cleavage stage embryos were thawed using the one-step thaw protocol using Global total with HEPES. Blastocyst stage embryos were thawed using the Quinn's Advantage thaw kit, then exposed to experimental conditions as outlined below. Vitrified embryos were thawed with the ECMPC warming solution set. Embryo culture was performed in Global Total. All experiments were conducted during incubation at 37° C. with 5% CO2 and 20% 02.
as §1
(§5) Following the experimental exposures, mouse and human embryos were fixed in 2% paraformaldehyde (PFA) and 0.25% Triton X-100 in PBS for 10 minutes at room temperature, serially washed in phosphate-buffered solution (PBS) at room temperature, then stored in PBS at 4° C. until staining and imaging. Embryos were placed in 10-20 ml droplets of primary antibody solution within plastic tissue culture dishes covered with mineral oil for 1 hour at room temperature, serially washed (×2) in PBS containing 0.01% Triton X-100 to prevent embryos sticking to oil, then transferred to 10-20 ml secondary antibody solution and Hoechst (dilution 1:500) for 30 minutes. Embryos were then serially washed (×2) and placed in 5 ml droplets of PBS with 0.5% serum albumin in uncoated glass bottom dishes (Mattek) covered with embryo culture oil for imaging. […]
Embryos were imaged with confocal microscopy using a Zeiss LSM (LSM 710) at a magnification of 63× and the Zeiss Zen software. […] Cell numbers and staining foci numbers were counted manually. […]

human embryos [2] = experiment: ethynyl uridine label incorporation in human embryos; assay type: cell-based; conditions: incubation from days 1 to 3
Method: as §1
as §5, with “minutes.” for “minutes. Embryos were then serially washed (×2) and placed in 5 ml droplets of PBS with 0.5% serum albumin in uncoated glass bottom dishes (Mattek) covered with embryo culture oil for imaging.”

mouse embryos = experiment: mouse preimplantation development and embryo quality; assay type: cell-based
Method: as §1, §2, §3, §4

ATR = ATR (Homo sapiens, UniProt Q13535); conditions: cited from earlier work
mouse 1-cell embryos = experiment: timing of mitotic entry in mouse 1-cell embryos; assay type: cell-based; conditions: G2 phase mouse embryos, compared with untreated controls
Method: as §1, §2

mouse 2-cell embryos = experiment: single-cell sequencing chromosome content analysis, mouse 2-cell embryos; assay type: cell-based; conditions: mouse embryos, Wee1 kinase inhibitor added alongside aphidicolin
Method: as §1
Single cells from blastomeres were collected on the heated stage (Tokai Hit) of an Olympus IX71 inverted microscope equipped with Narishige micromanipulators and a zona pellucida laser (Hamilton-Thorne). Single nuclei were isolated from blastomeres by lysis and dissection of different nuclei using two […] diameter Piezo micropipettes and Holding pipette (Origio). Single embryo cells or nuclei were placed manually in single wells of a 96-well plate containing 9 ml of lysis buffer, prepared as a master mix of 798 ml H2O, 6 ml of 10 mg/mL Proteinase K solution (Sigma-Aldrich), and 96 ml 10× Single Cell Lysis and Fragmentation buffer (Sigma-Aldrich). Single cells/single nuclei were lysed by heating 96-well plates containing single cells/single nuclei at 50° C. for 1 hour, followed by incubation at 99° C. for four minutes using a PCR thermocycler. Single-cell/single-nuclei whole genome amplification (WGA) using degenerate oligo-nucleotide priming PCR (DOP-PCR) was performed using the SEQPLEX Enhanced DNA Amplification Kit (SEQXE, Sigma) according to the manufacturer's instructions. In addition, a modified version of the DOP-PCR protocol that allows inline indexing of WGA DNA was also applied. WGA DNA was subsequently processed for Illumina library sequencing preparation using standard TruSeq indexing methods via the NEBNext Ultra II DNA Library Prep Kit for Illumina (New England Biolabs). NEBNext Multiplex Oligos for Illumina (96 index primers) were used for four amplification cycles. Library DNA was quantified using Qubit dsDNA HS Assay Kit (Invitrogen, Carlsbad, CA, USA) and library size distribution was confirmed using a 2100 Bioanalyzer DNA 1000 Kit (Agilent, Santa Clara, CA, USA). A unimodal curve centered around 300-500 bp was scored as a successful library preparation. Subsequently, 30 mL of each pooled library was sent for sequencing at a concentration of 20 ng/ml. Mutiplex sequencing was performed using Illumina HiSeq 2500 single end indexed run (SR100) while targeting a coverage of approximately 1 million reads per cell/nuclei, sufficient for quantitative genome-wide copy number analysis.
Analysis of DNA sequencing data was performed as previously described (Baslan et al., 2015) with minor modifications as outlined below. Briefly, multiplex sequencing data were demultiplexed according to unique barcodes with reads assigned to their respective single-cell or single-nuclei. Unique reads were aligned to the reference human and mouse genome builds, hg19 and mm9, respectively. Each genome was partitioned into 5000 bins using a previously described algorithm (Varbin) that corrects for genome sequence mappability (Baslan et al., 2012; Navin et al., 2011). Uniquely mapped reads were sorted, indexed and subsequently counted within the partitioned genomic bins. For single-cell copy number inference, read count data were normalized genome-wide followed by CBS segmentation (Olshen et al., 2004) and transformed into integer copy number states using a least-squares fit approach (Baslan et al., 2015).

Sequence of ATR (Q13535 whole entry): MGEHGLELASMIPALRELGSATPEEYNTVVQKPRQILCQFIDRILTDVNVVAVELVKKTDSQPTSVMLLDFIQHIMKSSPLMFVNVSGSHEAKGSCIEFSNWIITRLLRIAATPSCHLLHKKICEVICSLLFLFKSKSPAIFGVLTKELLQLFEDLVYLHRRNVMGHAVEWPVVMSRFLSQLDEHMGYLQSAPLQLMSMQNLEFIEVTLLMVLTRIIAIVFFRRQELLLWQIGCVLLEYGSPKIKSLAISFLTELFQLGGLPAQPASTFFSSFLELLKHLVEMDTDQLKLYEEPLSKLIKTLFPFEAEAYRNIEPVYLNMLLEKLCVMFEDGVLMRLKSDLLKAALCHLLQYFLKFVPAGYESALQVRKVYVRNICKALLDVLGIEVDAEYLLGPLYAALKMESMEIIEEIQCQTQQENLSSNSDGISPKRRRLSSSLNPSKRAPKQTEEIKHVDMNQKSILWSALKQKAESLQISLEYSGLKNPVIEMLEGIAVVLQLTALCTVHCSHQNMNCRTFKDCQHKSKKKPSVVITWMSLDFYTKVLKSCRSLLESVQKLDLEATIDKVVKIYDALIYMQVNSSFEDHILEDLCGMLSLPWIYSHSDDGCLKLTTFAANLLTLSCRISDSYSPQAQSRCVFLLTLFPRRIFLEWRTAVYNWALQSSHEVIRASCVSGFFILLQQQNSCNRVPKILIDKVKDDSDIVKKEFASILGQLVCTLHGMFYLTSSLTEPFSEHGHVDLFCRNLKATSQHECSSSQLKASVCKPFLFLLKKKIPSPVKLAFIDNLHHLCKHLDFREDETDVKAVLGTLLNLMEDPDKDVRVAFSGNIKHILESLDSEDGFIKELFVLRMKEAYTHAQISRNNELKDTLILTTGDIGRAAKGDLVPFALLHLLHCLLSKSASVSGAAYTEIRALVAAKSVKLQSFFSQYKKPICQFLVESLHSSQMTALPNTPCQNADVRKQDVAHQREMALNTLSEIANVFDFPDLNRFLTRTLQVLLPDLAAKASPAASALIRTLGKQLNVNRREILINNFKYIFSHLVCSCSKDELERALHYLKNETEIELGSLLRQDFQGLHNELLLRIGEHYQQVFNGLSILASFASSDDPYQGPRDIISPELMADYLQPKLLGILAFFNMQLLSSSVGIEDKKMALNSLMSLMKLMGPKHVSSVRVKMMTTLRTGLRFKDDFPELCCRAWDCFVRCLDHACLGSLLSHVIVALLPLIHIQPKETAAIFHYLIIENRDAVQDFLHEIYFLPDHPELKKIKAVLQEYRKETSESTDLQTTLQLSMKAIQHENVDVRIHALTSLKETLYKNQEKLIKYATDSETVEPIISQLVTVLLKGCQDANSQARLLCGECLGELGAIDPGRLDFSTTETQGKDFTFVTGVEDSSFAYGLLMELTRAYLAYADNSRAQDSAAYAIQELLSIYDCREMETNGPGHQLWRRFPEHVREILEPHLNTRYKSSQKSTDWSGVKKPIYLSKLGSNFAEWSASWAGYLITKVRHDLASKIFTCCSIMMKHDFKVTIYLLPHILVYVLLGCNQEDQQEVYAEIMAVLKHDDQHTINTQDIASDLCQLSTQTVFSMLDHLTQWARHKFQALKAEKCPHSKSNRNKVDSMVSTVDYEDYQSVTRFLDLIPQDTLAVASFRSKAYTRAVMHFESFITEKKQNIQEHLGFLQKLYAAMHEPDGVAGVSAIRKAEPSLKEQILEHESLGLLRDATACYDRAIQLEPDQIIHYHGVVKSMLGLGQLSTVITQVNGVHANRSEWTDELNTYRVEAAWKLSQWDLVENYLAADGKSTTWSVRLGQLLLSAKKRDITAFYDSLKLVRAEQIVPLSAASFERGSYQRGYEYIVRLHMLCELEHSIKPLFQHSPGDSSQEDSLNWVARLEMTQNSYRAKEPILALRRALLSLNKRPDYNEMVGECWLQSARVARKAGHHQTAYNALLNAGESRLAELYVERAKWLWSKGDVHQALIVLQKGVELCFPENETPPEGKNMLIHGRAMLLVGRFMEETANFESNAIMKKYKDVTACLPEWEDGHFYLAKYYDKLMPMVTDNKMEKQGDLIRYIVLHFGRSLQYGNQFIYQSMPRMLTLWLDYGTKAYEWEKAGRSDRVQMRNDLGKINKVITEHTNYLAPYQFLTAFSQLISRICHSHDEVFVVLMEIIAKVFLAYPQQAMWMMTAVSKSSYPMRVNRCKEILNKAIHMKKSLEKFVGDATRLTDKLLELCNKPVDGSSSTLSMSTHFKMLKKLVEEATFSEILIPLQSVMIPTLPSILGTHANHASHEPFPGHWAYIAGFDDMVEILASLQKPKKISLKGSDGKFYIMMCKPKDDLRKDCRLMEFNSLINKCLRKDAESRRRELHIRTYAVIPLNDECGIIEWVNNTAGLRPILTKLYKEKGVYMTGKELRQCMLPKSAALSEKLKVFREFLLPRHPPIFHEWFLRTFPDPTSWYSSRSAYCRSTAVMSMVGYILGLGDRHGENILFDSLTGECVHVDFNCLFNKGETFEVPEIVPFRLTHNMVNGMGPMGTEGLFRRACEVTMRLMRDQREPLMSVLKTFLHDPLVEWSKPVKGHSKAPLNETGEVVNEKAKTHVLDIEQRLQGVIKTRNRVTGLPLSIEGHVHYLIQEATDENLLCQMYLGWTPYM
Sequence of ATR (Q8WXE1 whole entry partner): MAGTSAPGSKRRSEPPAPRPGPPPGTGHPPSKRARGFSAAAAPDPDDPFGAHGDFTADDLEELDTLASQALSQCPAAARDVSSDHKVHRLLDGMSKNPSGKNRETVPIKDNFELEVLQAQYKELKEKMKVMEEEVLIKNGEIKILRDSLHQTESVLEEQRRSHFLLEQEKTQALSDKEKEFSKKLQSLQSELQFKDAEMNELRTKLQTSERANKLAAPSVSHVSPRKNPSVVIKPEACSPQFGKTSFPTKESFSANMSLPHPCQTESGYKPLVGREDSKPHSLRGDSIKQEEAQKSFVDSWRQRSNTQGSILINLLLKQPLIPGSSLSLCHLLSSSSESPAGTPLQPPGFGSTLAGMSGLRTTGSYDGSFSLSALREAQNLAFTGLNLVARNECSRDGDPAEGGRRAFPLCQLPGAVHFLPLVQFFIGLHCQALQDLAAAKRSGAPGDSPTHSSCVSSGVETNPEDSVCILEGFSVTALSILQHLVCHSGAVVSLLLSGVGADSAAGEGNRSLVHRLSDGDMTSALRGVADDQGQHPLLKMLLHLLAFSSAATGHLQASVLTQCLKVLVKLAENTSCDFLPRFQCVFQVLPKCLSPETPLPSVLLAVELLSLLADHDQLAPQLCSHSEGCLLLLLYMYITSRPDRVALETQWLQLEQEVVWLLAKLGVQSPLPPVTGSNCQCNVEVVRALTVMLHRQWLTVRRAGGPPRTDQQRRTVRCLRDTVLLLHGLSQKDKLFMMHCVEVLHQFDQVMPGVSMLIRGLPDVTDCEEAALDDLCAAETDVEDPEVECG

## N=C1NC(=O)/C(=C/c2ccc(O)cc2)S1 [mirin]
Mouse zygotes
  number of Rad51 foci: more than 50
  number of foci marked by γH2AX: more than 100
Human zygotes; human zygotes, combined exposure to aphidicolin and mirin
  number of RAD51 foci, average: 50 sites

## CC(C)[C@]12O[C@H]1[C@@H]1O[C@]13[C@]1(O[C@H]1C[C@H]1C4=C(CC[C@@]13C)C(=O)OC4)[C@@H]2O [triptolide]
Human embryos [1]
  micronucleation: comparable
Human embryos [2]
  embryos showing ethynyl uridine label incorporation: 0/4
Mouse embryos; in the presence of the inhibitor
  mouse embryos developed beyond the two-cell stage: 0/15

## CS(=O)(=O)c1ccc(-c2cnc(N)c(C(=O)Nc3ccccc3)n2)cc1 [ATR45]
Human zygotes; parthenogenetically activated oocytes, inhibitor from 14-18 h into the first cell cycle, relative to controls
  number of γH2AX foci: reduced significantly
ATR
  selectivity over related kinases ATM or DNA-PK: > 600 ×

## a-amanitin
Human embryos [1]
  micronucleation: comparable

## C=CCn1c(=O)c2cnc(Nc3ccc(N4CCN(C)CC4)cc3)nc2n1-c1cccc(C(C)(C)O)n1 [Wee1 kinase inhibitor]
Mouse 1-cell embryos
  advance of mitosis: 1.5 h
Mouse 2-cell embryos
  genome after mitosis: highly fragmented genome
Mouse embryos; treatment in G2 phase, compared with untreated controls
  developmental potential: impaired
